Literature values as cited in US6509447B1, “G protein chimeras and methods of screening compounds” (Glaxo Welcome Inc., priority 1997, dated 2003).

Target: T1, Ste2p (Saccharomyces cerevisiae, UniProt D6VTK4)
T1 sequence (D6VTK4 1-431): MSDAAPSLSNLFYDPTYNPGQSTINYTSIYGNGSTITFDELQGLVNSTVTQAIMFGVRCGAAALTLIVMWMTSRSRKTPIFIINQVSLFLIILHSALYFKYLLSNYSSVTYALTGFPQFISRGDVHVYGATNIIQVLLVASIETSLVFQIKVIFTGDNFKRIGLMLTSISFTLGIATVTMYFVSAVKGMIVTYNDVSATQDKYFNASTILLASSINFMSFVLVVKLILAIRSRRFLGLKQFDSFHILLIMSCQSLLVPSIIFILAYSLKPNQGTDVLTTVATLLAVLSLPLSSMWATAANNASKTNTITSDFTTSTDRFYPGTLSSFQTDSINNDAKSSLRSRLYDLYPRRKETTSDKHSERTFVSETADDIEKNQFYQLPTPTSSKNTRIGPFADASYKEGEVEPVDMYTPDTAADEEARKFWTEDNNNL
Settings: literature reference (3); read-out: reported affinity of Ste2p for α-factor peptide (Kd); cited from earlier work

## α-factor
  Kd: 17 nM
